# Laboratory results taken from patent US20100172854A1, “ANTIBACTERIAL FORMULATIONS” (priority 2007, published 2010).
# What was measured:
# [1] = test system: P. granulosum PPR-006; assay: Agar dilution MIC assay; format: cell-based, Propionibacterium granulosum; conditions: Propionibacterium, PPR006
# Description: (§1) The propionibacteria were cultured and maintained on Wilkins-Chalgren Anaerobe Medium (agar and broth) at pH 6.0; all cultures were incubated anaerobically at 37° C. for 72 hours.
# This is a standard international method for quantitatively assessing the antimicrobial activity of a compound in a solid medium. The test compound was prepared to 40× the highest concentration required (e.g. 10 mg/ml for a final concentration of 250 μg/ml) and a series of doubling dilutions were performed in a suitable solvent. A set amount of these antimicrobial stock solutions was then added to molten agar medium (ca. 55° C.), mixed thoroughly, poured into sterile Petri dishes and allowed to cool/set. The culture medium was as described above.
# A Multipoint™ Inoculator (AQS Manufacturing Ltd, UK) was used to inoculate the plates by spotting the inocula onto the surface of the agar, delivering approximately 1 to 2 μl per spot (yielding 10^5 CFU (colony forming units) per spot).
# The plate(s) were then incubated under the conditions described above, following which they were examined visually for signs of bacterial growth. The MIC value was ascertained when there was a marked reduction in, or total loss of, growth on the test plate at the lowest concentration as compared to that of the growth on the control plate. […]
# [2] = test system: Propionibacterium acnes NCTC 737; assay: MIC assay; format: cell-based; conditions: Cutibacterium acnes, NCTC737; P. acnes NCTC 737
# Description: as §1
# (§2) This is a standard international method for quantitatively assessing the antimicrobial activity of a compound in a liquid medium. The method used a sterile 96-well microtitre plate, capable of holding about 200 μl of liquid per well. The wells contained liquid culture medium and ranges of decreasing concentrations of the relevant test compound in doubling dilutions (e.g. 1000, 500, 250, 125 . . . μg/ml, etc. down to 0.49 μg/ml). The culture media were as described above.
# (§3) The wells were inoculated with a liquid suspension of freshly grown micro-organism and incubated under the conditions described above. After incubation, the microtitre plate was examined visually (with the aid of a light box) for cloudiness in each well, which would indicate microbial growth. The MIC value was recorded as the lowest concentration of test compound required to inhibit microbial growth, i.e. the lowest concentration for which the liquid in the well remained clear.
# (§4) The assays included both negative (culture medium with no micro-organisms) and positive (culture medium plus diluting solvent plus micro-organism) controls.
# [3] = test system: S. aureus CPHL EMRSA 15; assay: MIC assay; format: cell-based; conditions: Staphylococcus aureus
# Description: (§5) The staphylococci were cultured and maintained on Mueller-Hinton Medium (agar and broth) at pH 7.2; cultures were incubated aerobically at 37° C. for 19-20 hours.
# as §2, §3, §4
# [4] = test system: S. aureus ATCC 12606; assay: MIC assay; format: cell-based; conditions: Staphylococcus aureus, ATCC12606
# Description: as §5, §2, §3, §4
# [5] = test system: Staphylococcus simulans ATCC 27848; assay: MIC assay; format: cell-based; conditions: ATCC27848
# Description: as §5, §2, §3, §4
# [6] = test system: S. aureus ATCC 12605; assay: MIC assay; format: cell-based; conditions: Staphylococcus aureus, ATCC12605
# Description: as §5, §2, §3, §4
# [7] = test system: S. aureus CPHL VISA Mu50; assay: MIC assay; format: cell-based; conditions: Staphylococcus aureus, resistance phenotype Van (intermediate)
# Description: as §5, §2, §3, §4
# [8] = test system: S. aureus ATCC 12604; assay: MIC assay; format: cell-based; conditions: Staphylococcus aureus, ATCC12604
# Description: as §5, §2, §3, §4
# [9] = test system: S. aureus CPHL GISA HO41340156; assay: MIC assay; format: cell-based; conditions: Staphylococcus aureus
# Description: as §5, §2, §3, §4
# [10] = test system: S. aureus ATCC 12607; assay: MIC assay; format: cell-based; conditions: Staphylococcus aureus, ATCC12607
# Description: as §5, §2, §3, §4
# [11] = test system: Staphylococcus xylosus ATCC 29971; assay: MIC assay; format: cell-based; conditions: ATCC29971
# Description: as §5, §2, §3, §4
# [12] = test system: Staphylococcus auricularis ATCC 33753; assay: MIC assay; format: cell-based; conditions: ATCC33753
# Description: as §5, §2, §3, §4
# [13] = test system: Staphylococcus capitis ATCC 27840; assay: MIC assay; format: cell-based; conditions: ATCC27840
# Description: as §5, §2, §3, §4
# [14] = test system: S. aureus CPHL EMRSA 16; assay: MIC assay; format: cell-based; conditions: Staphylococcus aureus
# Description: as §5, §2, §3, §4
# [15] = test system: S. aureus ATCC 12600-U; assay: MIC assay; format: cell-based; conditions: Staphylococcus aureus, ATCC12600
# Description: as §5, §2, §3, §4
# [16] = test system: S. saprophyticus NCTC 7292; assay: MIC assay; format: cell-based; conditions: Staphylococcus saprophyticus, NCTC7292
# Description: as §5, §2, §3, §4
# [17] = test system: S. aureus CPHL VISA Mu3; assay: MIC assay; format: cell-based; conditions: Staphylococcus aureus
# Description: as §5, §2, §3, §4
# [18] = test system: S. aureus NCTC 12493; assay: MIC assay; format: cell-based; conditions: Staphylococcus aureus, NCTC12493, resistance phenotype Met
# Description: as §5, §2, §3, §4
# [19] = test system: S. aureus NCTC 12981; assay: MIC assay; format: cell-based; conditions: Staphylococcus aureus, NCTC12981
# Description: as §5, §2, §3, §4
# [20] = test system: S. epidermidis NCTC 11047; assay: MIC assay; format: cell-based; conditions: Staphylococcus epidermidis, NCTC11047
# Description: as §5, §2, §3, §4
# [21] = test system: Staphylococcus aureus ATCC 12600; assay: MIC assay; format: cell-based; conditions: ATCC12600
# Description: as §5, §2, §3, §4
# [22] = test system: Staphylococcus cohnii ATCC 29974; assay: MIC assay; format: cell-based; conditions: ATCC29974
# Description: as §5, §2, §3, §4
# [23] = test system: acyl-CoA: cholesterol acyltransferase (ACAT); conditions: compound isolated from Aspergillus fumigatus, believed to be Antioxidant 2246; cited from earlier work
# [24] = test system: Porphyromonas gingivalis ATCC BAA-308; assay: MIC assay; format: cell-based; conditions: ATCCBAA308
# Description: (§6) The P. gingivalis strains were cultured and maintained on Wilkins-Chalgren Anaerobe Medium (agar and broth) at pH 7.0; all cultures were incubated anaerobically at 37° C. for 5-7 days.
# as §2, §3, §4
# [25] = test system: Porphyromonas gingivalis NCTC 11834; assay: MIC assay; format: cell-based; conditions: NCTC11834
# Description: as §6, §2, §3, §4
# [26] = test system: Porphyromonas gingivalis ATCC 53978; assay: MIC assay; format: cell-based; conditions: ATCC53978
# Description: as §6, §2, §3, §4
compound,measurement,setting,value
"Cc1cc(Cc2cc(C)cc(C(C)(C)C)c2O)c(O)c(C(C)(C)C)c1 [AO 2246, 2,2′-methylene-bis(4-methyl-6-tert-butylphenol)]",MIC,[1],1.95 µg/mL
same,MIC,[2],3.9 µg/mL
same,MIC,[3],1.95 µg/mL
same,MIC,[4],1.95 µg/mL
same,MIC,[5],15.6 µg/mL
same,MIC,[6],1.95 µg/mL
same,MIC,[7],0.98 µg/mL
same,MIC,[8],1.95 µg/mL
same,MIC,[9],1.95 µg/mL
same,MIC,[10],1.95 µg/mL
same,MIC,[11],3.9 µg/mL
same,MIC,[12],1.95 µg/mL
same,MIC,[13],3.9 µg/mL
same,MIC,[14],1.95 µg/mL
same,MIC,[15],0.98 µg/mL
same,MIC,[16],3.9 µg/mL
same,MIC,[17],1.95 µg/mL
same,MIC,[18],0.98 µg/mL
same,MIC,[19],1.95 µg/mL
same,MIC,[20],3.9 µg/mL
same,MIC,[21],0.98 µg/mL
same,MIC,[22],3.9 µg/mL
same,inhibitor of the enzyme ACAT,[23],inhibitor
same,MIC,[24],3.9 µg/mL
same,MIC,[25],3.9 µg/mL
same,MIC,[26],0.98 µg/mL
